Laboratory results: patent publication US10676429B2, “Sulfamoyl-arylamides and the use thereof as medicaments for the treatment of hepatitis B” (priority 2012, dated 2020)

Experiments:
[1] = Cytotoxicity in HepG2 cells, 4 days, Resazurin assay; conditions: human
HBV [2] = experiment: Anti-HBV activity in HepG2.117 cell line (Tet-off, intracellular HBV DNA, realtime PCR); format: cell-based
HBV [3] = experiment: Anti-HBV activity in stable transfected HepG2.2.15 cell line (HBV DNA from secreted virions, realtime PCR); format: cell-based
[4] = Hepatitis B virus, HepG2.117, 72 h, HepG2.117 cells, 3 days of treatment, intracellular HBV DNA, read-out: HepG2 117 EC50
[5] = Hepatitis B virus, HepG2.2.15, 144 h, HepG2.2.15 cells, 6 days of treatment, secreted virion HBV DNA, read-out: HepG2 2.15 EC50
[6] = HepG2.117 cells, 3 days of treatment, intracellular HBV DNA, read-out: HepG2 117 EC50
[7] = HepG2.2.15 cells, 6 days of treatment, secreted virion HBV DNA, read-out: HepG2 2.15 EC50

Compound | CC50 at 4 days ([1]; HepG2 cells) [µM] | EC50 (HBV [2]; [4]) [µM] | EC50 (HBV [3]; [5]) [µM] | EC50 (HBV [2]; [6]) [µM] | EC50 (HBV [3]; [7]) [µM] | CC50 at 4 days [1] [µM] | EC50 (HBV [2]; Hepatitis B virus, HepG2.117, 72 h, read-out: HepG2 117 EC50 (μM)) [µM] | EC50 (HBV [3]; Hepatitis B virus, HepG2.2.15, 144 h, read-out: HepG2 2.15 EC50 (μM)) [µM]
Cc1cc(NC(=O)c2cccc(S(=O)(=O)N[C@@H]3CCCC[C@H]3O)c2)ccc1F (racemic) [Compound 130] | > 25 | 1.03 | 0.88 |  |  |  |  | 
Cc1cc(NC(=O)c2cccc(S(=O)(=O)N[C@@H]3CCCC[C@@H]3O)c2)ccc1F (racemic) [Compound 132] | > 25 | 0.73 | 0.59 |  |  |  |  | 
COC(=O)N1CCCC(NS(=O)(=O)c2cccc(C(=O)Nc3ccc(F)c(C)c3)c2)C1 (racemic) [Compound 159] | > 25 |  | 0.15 |  |  |  |  | 
Cc1cc(NC(=O)c2cccc(S(=O)(=O)NC3Cc4ccccc4C3O)c2)ccc1F (single isomer, unassigned) [Compound 141a, N-(4-fluoro-3-methyl-phenyl)-3-[[(1S,2S)-1-hydroxyindan-2-yl]-sulfamoyl]benzamide or N-(4-fluoro-3-methyl-phenyl)-3-[[(1R,2R)-1-hydroxyindan-2-yl]sulfamoyl]benzamide] | > 25 |  |  | 1.65 | 0.7 |  |  | 
Cc1cc(NC(=O)c2cccc(S(=O)(=O)NC3CCC(O)C3)c2)ccc1F (single isomer, unassigned) [Compound 145a, N-(4-fluoro-3-methyl-phenyl)-3-[[(1R,3S)-3-hydroxycyclopentyl]sulfamoyl]benzamide or N-(4-fluoro-3-methyl-phenyl)-3-[[(1S,3R)-3-hydroxycyclopentyl]sulfamoyl]benzamide] | > 25 |  |  | 0.21 | 0.14 |  |  | 
O=C(Nc1cccc(C(F)(F)F)c1)c1cc(S(=O)(=O)NC2CCCCC2)ccc1F [Compound 7] | 11.4 | 0.56 | 0.66 |  |  |  |  | 
Cc1cc(NC(=O)c2cccc(S(=O)(=O)NC3CCCC3)c2)ccc1F [Compound 11] | 19.6 | 0.42 | 0.1 |  |  |  |  | 
Cc1cc(F)cc(NC(=O)c2cccc(S(=O)(=O)NC3CCCC3)c2)c1 [Compound 12] | 13.3 | 1.51 | 0.11 |  |  |  |  | 
Cc1ccc(NC(=O)c2cccc(S(=O)(=O)NC3CCCC3)c2)cc1F [Compound 13] | 13.8 | 15.3 | 1.99 |  |  |  |  | 
O=C(Nc1ccc(F)c(F)c1)c1cccc(S(=O)(=O)NC2CCCC2)c1 [Compound 14] | 11.7 | 0.36 | 0.09 |  |  |  |  | 
O=C(Nc1cc(F)cc(F)c1)c1cccc(S(=O)(=O)NC2CCCC2)c1 [Compound 15] | 10.1 | 0.78 | 0.28 |  |  |  |  | 
Cc1cc(NC(=O)c2cccc(S(=O)(=O)NC3CCCC3)c2)ccc1C#N [Compound 16] | 10.3 | 2.8 | 1.21 |  |  |  |  | 
Cc1cccc(NC(=O)c2cc(S(=O)(=O)N3CCCCC3)c(Cl)cc2Cl)c1 [Compound 17] | > 100 | 2.65 | 0.56 |  |  |  |  | 
O=C(Nc1ccc(F)cc1)c1cccc(S(=O)(=O)N2CCCC2)c1 [Compound 36] | 97 | 3.03 | 4.53 |  |  |  |  | 
CN(C(=O)C1CCCCC1)S(=O)(=O)c1cccc(C(=O)Nc2ccc(F)cc2)c1 [Compound 48] | 97.2 | 1.88 | 2.92 |  |  |  |  | 
CN(C)S(=O)(=O)c1ccc(F)c(C(=O)Nc2ccccc2)c1 [Compound 49] | > 100 | 9.15 | 13.4 |  |  |  |  | 
O=C(Nc1ccc(C(F)(F)F)cc1)c1cc(S(=O)(=O)NC2CCCC2)ccc1F [Compound 50] | 11.3 | 15.8 | 45.9 |  |  |  |  | 
O=C(Nc1ccc(Cl)cc1)c1cc(S(=O)(=O)NC2CCCC2)ccc1F [Compound 51] | 20.8 | 9.44 | 3.98 |  |  |  |  | 
O=C(Nc1ccc(F)cc1)c1cc(S(=O)(=O)N2CCC3(CC2)OCCO3)ccc1F [Compound 52] | > 50 | 2.44 | 1.94 |  |  |  |  | 
O=C(Nc1ccc(F)cc1)c1cc(S(=O)(=O)NC2CCCC2)ccc1F [Compound 53] | > 50 | 0.44 | 0.36 |  |  |  |  | 
O=C(Nc1ccc(F)cc1)c1cc(S(=O)(=O)N2CCCCC2)ccc1Cl [Compound 54] | > 50 | 1.55 | 1.63 |  |  |  |  | 
O=C(Nc1ccccc1)c1cccc(S(=O)(=O)NC2CC2)c1 [Compound 55] | > 100 | 3.26 | 3.06 |  |  |  |  | 
O=C(Nc1ccc(F)cc1)c1cccc(S(=O)(=O)NC(=O)C2CCCCC2)c1 [Compound 56] | > 100 | 5.45 | 1.64 |  |  |  |  | 
O=C(Nc1ccc(F)cc1)c1ccc(S(=O)(=O)N2CCCCC2)o1 [Compound 57] | 52.1 | 12.7 | 15.5 |  |  |  |  | 
O=C(Nc1ccccc1)c1ccc(S(=O)(=O)N2CCCCC2)o1 [Compound 58] | 62.5 | 19.9 | 14.6 |  |  |  |  | 
O=C(Nc1ccccc1)c1cc(S(=O)(=O)N2CCCCC2)cs1 [Compound 59] | 46.7 | 19.3 | 12.8 |  |  |  |  | 

Compound | CC50 at 4 days ([1]; HepG2 cells) [µM] | EC50 (HBV [2]; [4]) [µM] | EC50 (HBV [3]; [5]) [µM] | EC50 (HBV [2]; [6]) [µM] | EC50 (HBV [3]; [7]) [µM] | CC50 at 4 days [1] [µM] | EC50 (HBV [2]; Hepatitis B virus, HepG2.117, 72 h, read-out: HepG2 117 EC50 (μM)) [µM] | EC50 (HBV [3]; Hepatitis B virus, HepG2.2.15, 144 h, read-out: HepG2 2.15 EC50 (μM)) [µM]
O=C(Nc1ccccc1)c1cc(S(=O)(=O)NC2CCCCC2)cs1 [Compound 60] | 29.1 | 0.67 | 0.85 |  |  |  |  | 
O=C(Nc1ccc(F)cc1)c1cc(S(=O)(=O)N2CCCCC2)cs1 [Compound 61] |  |  |  |  |  | 35.7 | 15.4 | 7.07
Cc1[nH]c(C(=O)Nc2ccccc2)c(C)c1S(=O)(=O)N1CCCCC1 [Compound 62] | > 50 | 10.1 | 7.06 |  |  |  |  | 
O=C(Nc1ccccc1)c1c[nH]c(S(=O)(=O)NC2CCCCC2)n1 [Compound 63] | > 100 | 21.1 | 9.94 |  |  |  |  | 
O=C(Nc1ccccc1)c1cccc(S(=O)(=O)NC2CCCCC2)n1 [Compound 65] | 35.3 | > 25 | 10.8 |  |  |  |  | 
O=C(Nc1ccccc1)c1ccnc(S(=O)(=O)NC2CCCCC2)c1 [Compound 66] | > 100 | 14.5 | 4.27 |  |  |  |  | 
O=C(Nc1ccccc1)c1cc(S(=O)(=O)NC2CCCCC2)ccn1 [Compound 67] | > 100 | 18.6 | 11.1 |  |  |  |  | 
O=C(Nc1ccccc1)c1cncc(S(=O)(=O)NC2CCCCC2)c1 [Compound 68] | 68 | > 25 | 18.6 |  |  |  |  | 
O=C(Nc1ccc(F)cc1)c1cccc(S(=O)(=O)N2CCCCC2=O)c1 [Compound 69] | > 25 | 10.4 | 3.9 |  |  |  |  | 
CC[C@@H](C)NS(=O)(=O)c1cccc(C(=O)Nc2ccc(F)cc2)c1 [Compound 70] | > 25 | 0.89 | 0.34 |  |  |  |  | 
CC[C@H](C)NS(=O)(=O)c1cccc(C(=O)Nc2ccc(F)cc2)c1 [Compound 71] | > 25 | 8.63 | 0.75 |  |  |  |  | 
Cc1cc(NC(=O)c2cccc(S(=O)(=O)N[C@H]3CCOC3)c2)ccc1F [Compound 72] | > 25 | 0.37 | 0.12 |  |  |  |  | 
Cc1cc(NC(=O)c2cccc(S(=O)(=O)NC(C)C)c2)ccc1F [Compound 73] | > 25 | 0.15 | 0.073 |  |  |  |  | 
CC(C)NS(=O)(=O)c1cccc(C(=O)Nc2ccc(F)c(C(F)(F)F)c2)c1 [Compound 74] | > 25 | 0.53 | 0.64 |  |  |  |  | 
N#Cc1cccc(NC(=O)c2cccc(S(=O)(=O)NC3CCCC3)c2)c1 [Compound 75] | > 25 | 0.82 | 0.39 |  |  |  |  | 
CC1(NS(=O)(=O)c2cccc(C(=O)Nc3ccc(F)cc3)c2)CCCC1 [Compound 76] | > 25 | 2.5 | 0.72 |  |  |  |  | 
O=C(Nc1ccc(F)cc1)c1cc(S(=O)(=O)NC2CCCC2)c(Cl)cc1Cl [Compound 78] | > 25 | 0.65 | 0.9 |  |  |  |  | 
CCC(C)(C)NS(=O)(=O)c1cccc(C(=O)Nc2ccc(F)cc2)c1 [Compound 79] | > 25 | 1.69 | 0.96 |  |  |  |  | 
N#Cc1ccc(NC(=O)c2cccc(S(=O)(=O)NC3CCCC3)c2)cc1 [Compound 80] | > 25 | 17.9 | 8.4 |  |  |  |  | 
O=C(Nc1cccc(C(F)(F)F)c1)c1cccc(S(=O)(=O)NC2CCCC2)c1 [Compound 81] | 15.3 | 0.81 | 0.24 |  |  |  |  | 
Cc1cc(C#N)cc(NC(=O)c2cccc(S(=O)(=O)NC3CCCC3)c2)c1 [Compound 82] | > 25 | 3.13 | 1.2 |  |  |  |  | 
CC(C)NS(=O)(=O)c1cccc(C(=O)Nc2ccc(F)c(C3CC3)c2)c1 [Compound 84] | > 25 | 0.91 | 0.32 |  |  |  |  | 
CCC1(NS(=O)(=O)c2cccc(C(=O)Nc3ccc(F)c(C)c3)c2)CC1 [Compound 85] | > 25 | 0.38 | 0.05 |  |  |  |  | 
CCC(C)(C)NS(=O)(=O)c1cccc(C(=O)Nc2ccc(F)c(C)c2)c1 [Compound 86] | > 25 | 0.11 | 0.14 |  |  |  |  | 
CCC1(NS(=O)(=O)c2cccc(C(=O)Nc3ccc(F)cc3)c2)CC1 [Compound 87] | > 25 | 0.89 | 0.41 |  |  |  |  | 
CC(C)NS(=O)(=O)c1cccc(C(=O)Nc2ccc(F)c(F)c2)c1 [Compound 88] | > 25 | 0.4 | 0.21 |  |  |  |  | 
